A short description of the series: in vitro. The settings on record: human, hela cells, % viability.

Take `N#C/C(=C/c1ccc(Sc2ccc(Cl)cc2)o1)c1ccc(C(=O)O)cc1` [CBK268996]: the viability (in general, a read-out of living cells in per cent, often relative to untreated cells) at 28.5 h, 10 µM stood at 89.8%. The same measure, in the same setting: under `COc1ccc(OC)c(NC(=O)c2ccc3nccnc3c2)c1` [CBK268997] stands 106%; under `O=C(Cn1ccc([N+](=O)[O-])n1)NCc1ccco1` [CBK268999], 89.6%; under `Cc1ccc(S(=O)(=O)Nc2ccc(C(=O)Nc3ccc(S(=O)(=O)N4CCCCC4)cc3)cc2)cc1` [CBK269000], 101%. `O=S(=O)(N1CCCCCC1)N1CCN(S(=O)(=O)N2CCCCC2)CC1` [CBK269001]: the viability at 28.5 h, 10 µM worked out at 114%. Consider `NS(=O)(=O)c1ccc(NC(=O)CSc2ccc([N+](=O)[O-])cn2)cc1` [CBK269002], for which the viability at 28.5 h, 10 µM is 95%. On to `CN1CCN(C(=O)c2nc(SCc3ccccc3)ncc2Cl)CC1` [CBK269003], for which the viability at 28.5 h, 10 µM turned out to be 86.7%.

On to `Cc1ccccc1NS(=O)(=O)c1cc(C(=O)Nc2ccc(S(=O)(=O)N3CCCC3)cc2)ccc1C` [CBK269004], for which the viability at 28.5 h, 10 µM turned out to be 92.9%.

In the case of `CCOc1ccc(C(=O)Nc2ccc(-c3nc4ccccc4s3)cc2C)cc1[N+](=O)[O-]` [CBK269005], the viability at 28.5 h, 10 µM was determined as 90.5%.

Regarding `O=C(CSc1nnc(CN2CCOCC2)n1-c1ccc(Cl)cc1)N1CCc2ccccc21` [CBK269008], the viability at 28.5 h, 10 µM is 97.9%.

For `CC1CN(S(=O)(=O)N2CCOCC2)CCN1S(=O)(=O)N1CCOCC1` (stereo not drawn) [CBK269011], the viability at 28.5 h, 10 µM was 101%.

In the case of `Cc1c(NC(=O)CN(c2ccccc2)S(=O)(=O)N(C)C)cccc1[N+](=O)[O-]` [CBK269012], the viability at 28.5 h, 10 µM was 106%. The same measure, in the same setting: under `COc1ccccc1NC(=O)C1C2NC(=S)NC1(C)Oc1c(OC)cccc12` (stereo not drawn) [CBK269013] stands 107%; under `Cc1cc(Br)c(NC(=O)COc2ccc(/C=C(\C#N)C(N)=S)cc2)cc1C` [CBK269014], 97.5%; under `Cc1ccc(OC(C)C(=O)NCc2ccccc2)cc1` (stereo not drawn) [CBK269016], 101%. On the same count and under the same terms, as for `O=C(CCN1CCOCC1)NNC(=O)Nc1cccc(C(F)(F)F)c1` [CBK269017], the figure is 104%. For the compound `N#Cc1c(NC(=O)CSc2nc3ccccc3s2)oc(-c2ccccc2)c1-c1ccccc1` [CBK269019], the viability at 28.5 h, 10 µM stood at 97%. For the compound `COC(=O)c1cccc(Cn2cc(/C=C\[N+](=O)[O-])c3ccccc32)c1` [CBK269020], the viability at 28.5 h, 10 µM was found to be 93.4%. Consider `O=C1NC(=O)C(CCc2ccccn2)(CCc2ccccn2)C(=O)N1c1cccc(C(F)(F)F)c1` [CBK269021], for which the viability at 28.5 h, 10 µM (bulk resorufin, single well) stood at 99.8%. With `O=C(NC(=S)Nc1cccc2c(O)cccc12)c1ccc(-c2ccccc2)cc1` [CBK269022], the viability at 28.5 h, 10 µM is 85.3%.

As to `O=C(O)CSc1nc(Nc2ccccc2)nc(N2CCOCC2)n1` [CBK269023], the viability at 28.5 h, 10 µM is 107%.

`NCCSC1CC(=O)N(Cc2ccc(F)cc2)C1=O` (stereo not drawn) [CBK269025C]: the viability at 28.5 h, 10 µM came out at 101%. Consider `COc1ccc(C)cc1Nc1nc(N)nc(-c2oc3ccccc3c2C)n1` [CBK269026], for which the viability at 28.5 h, 10 µM came to 107%. `Cc1ccc2c(C)nc(Nc3nc(CSc4nnc(C)s4)cc(=O)[nH]3)nc2c1` [CBK269027]: the viability at 28.5 h, 10 µM stood at 87.1%. Regarding `Cc1ccc(O)c(Nc2ncnc3ccc(Br)cc23)c1` [CBK269028C], the viability at 28.5 h, 10 µM worked out at 98.3%.

Turning to `Cc1ccc(CCC(=O)Nc2ccc(S(N)(=O)=O)cc2)o1` [CBK269031], the viability at 28.5 h, 10 µM was 99.9%. Take `O=C(c1ccc(N2CCN(C3CC(=O)N(Cc4cccs4)C3=O)CC2)cc1)c1cccnc1` (stereo not drawn) [CBK269040]: the viability at 28.5 h, 10 µM is 98.5%. As to `Cn1c(=O)n(C)c2cc(NC(=O)CSc3nc(Nc4ccccc4)nc(N4CCOCC4)n3)ccc21` [CBK269041], the viability at 28.5 h, 10 µM is 111%.

With `COc1ccc(OC)c(NC(=O)CSc2nnc(-c3cccnc3)s2)c1` [CBK269043], the viability at 28.5 h, 10 µM turned out to be 78.3%. On the same count and under the same terms, under `COc1cc(C)c(Cl)cc1S(=O)(=O)NCCCN1CCOCC1` [CBK269044] stands 97.1%; under `CCCOc1ccc(S(=O)(=O)NCCN2CCOCC2)c2ccccc12` [CBK269045], 99.1%; under `COc1ccccc1NC(=N)Nc1nc(CSc2nc3ccccc3s2)cc(=O)[nH]1` [CBK269046], 86%.

In the case of `NCCSC1CC(=O)N(Cc2cccs2)C1=O` (stereo not drawn) [CBK269047C], the viability at 28.5 h, 10 µM stood at 92.3%.

Take `Nc1ncnc2c1ncn2CCN1CCOCC1` [CBK269049]: the viability at 28.5 h, 10 µM was 104%. The same measure, in the same setting: as for `CC(Oc1ccccc1)C(=O)N1CCN(C/C=C/c2ccccc2)CC1` (stereo not drawn) [CBK269050], the figure is 98%; as for `O=C(Nc1ccc(N2CCN(C(=O)c3ccco3)CC2)cc1)c1cc([N+](=O)[O-])ccc1N1CCOCC1` [CBK269052], 91.6%. For the compound `Cc1cc(C)cc(NC(=O)C2CC(=O)N=C(NCc3ccccc3)N2)c1` (stereo not drawn) [CBK269054], the viability at 28.5 h, 10 µM is 87.1%. Turning to `O=C(c1cc2nc(-c3ccccc3)cc(-c3ccccc3)n2n1)N1CCN(C(=O)c2ccco2)CC1` [CBK269056], the viability at 28.5 h, 10 µM was determined as 99.4%. In the case of `COc1cc(/C=C(/C#N)c2ccc(C(=O)O)cc2)ccc1OCc1cccc([N+](=O)[O-])c1` [CBK269057], the viability at 28.5 h, 10 µM is 108%. As for `CCCOc1ccc(S(=O)(=O)NCc2ccc3c(c2)OCO3)c2ccccc12` [CBK269059], the viability at 28.5 h, 10 µM came to 94.3%. Take `Cc1ccc(-c2cc(=O)c3cc(OCC(=O)Nc4sc5c(c4C#N)CCCC5)ccc3o2)cc1` [CBK269062]: the viability at 28.5 h, 10 µM was 96.6%. For `Cc1ccc(C)c(OCC(=O)N(Cc2nc(-c3ccccc3)no2)C2CCCCC2)c1` [CBK269067], the viability at 28.5 h, 10 µM came to 89.4%.

Consider `O=C(c1ccncc1)n1nc(NCc2ccccc2)nc1NCc1ccccc1` [CBK269069], for which the viability at 28.5 h, 10 µM was determined as 89.5%. As to `COc1ccc(-n2c(S)nnc2-c2cc(C(C)(C)C)n[nH]2)cc1` [CBK269071], the viability at 28.5 h, 10 µM was determined as 97.9%.

Consider `O=C(O)c1cc2ncc(-c3n[nH]cc3[N+](=O)[O-])cn2n1` [CBK269072], for which the viability at 28.5 h, 10 µM is 100%. As for `Cc1cccc(C(=O)Nc2ccc(C(=O)NNC(=O)C(C)(C)C)cc2)c1` [CBK269073], the viability at 28.5 h, 10 µM was 111%. Same read-out and setting: under `Cn1c(SCCC(=O)O)nnc1-c1cccnc1` [CBK269077] stands 108%; under `COc1nc(N(C)C)nc(N2CC(=O)N(c3ccccc3)C2=N)n1` [CBK269079], 87.6%. As to `Cc1cc(C)c(C)c(S(=O)(=O)N(CCO)CCO)c1C` [CBK269082], the viability at 28.5 h, 10 µM was determined as 90.5%. For the compound `CCCNC(=O)c1ccc(C)c(S(=O)(=O)Nc2ccc(C)cc2C)c1` [CBK269084], the viability at 28.5 h, 10 µM was determined as 88.8%. On to `O=C(NCc1ccccc1Cl)C1CCCN(S(=O)(=O)c2ccccc2)C1` (stereo not drawn) [CBK269086], for which the viability at 28.5 h, 10 µM worked out at 92.8%. Turning to `O=C(CSc1nnc(CN2CCOCC2)n1-c1ccc(Cl)cc1)N1CCN(c2ccccc2)CC1` [CBK269088], the viability at 28.5 h, 10 µM came to 96.9%. In the case of `Cc1ccccc1-c1noc(CSc2nnc(-c3ccncc3)n2-c2ccc(F)cc2)n1` [CBK269089], the viability at 28.5 h, 10 µM came out at 96.8%. Consider `CCN1CCN(C(=O)c2ccc3nc(-c4ccccc4)c(-c4ccccc4)nc3c2)CC1` [CBK269090], for which the viability at 28.5 h, 10 µM was determined as 94.7%. Still for that read-out and setting: under `COc1ccc(C)cc1S(=O)(=O)N(CC(=O)O)c1ccc(Cl)c(Cl)c1` [CBK269095] stands 104%; under `CN1CCC(N(C)C(=O)c2ccc3nccnc3c2)CC1` [CBK269096], 108%; under `N#C/C(=C/c1cc(Cl)c(OCc2ccc([N+](=O)[O-])cc2)c(Cl)c1)c1ccc(C(=O)O)cc1` [CBK269098], 105%.

`COC(=O)c1ccccc1NC(=O)CNC(=O)c1ccccc1Cl` [CBK269113]: the viability at 28.5 h, 10 µM stood at 88.8%.

As for `N#Cc1ccccc1COC(=O)c1cc(-c2ccc(/C=C/c3nc(O)c([N+](=O)[O-])c(=O)[nH]3)o2)ccc1Cl` [CBK269115], the viability at 28.5 h, 10 µM worked out at 101%. For the compound `CC(NS(=O)(=O)c1ccc(OCC(=O)N2CCc3ccccc3C2)c(Cl)c1)c1ccccc1` (stereo not drawn) [CBK269117], the viability at 28.5 h, 10 µM is 92%. Take `O=C(O)CCC(=O)Nc1ccc(C(=O)N2CCCc3ccccc32)cc1` [CBK269118]: the viability at 28.5 h, 10 µM turned out to be 114%. Regarding `O=C(CCCc1nc(-c2ccccc2Cl)no1)Nc1cccnc1` [CBK269122], the viability at 28.5 h, 10 µM is 91.6%. `CCOc1ccc(N2C(=O)CC(N3CCN(c4ccc(C(=O)c5ccncc5)cc4)CC3)C2=O)cc1` (stereo not drawn) [CBK269124]: the viability at 28.5 h, 10 µM amounted to 86.5%. On the same count and under the same terms, under `CC(=O)Nc1ccc(S(=O)(=O)Nc2cccc(-c3cn4cccnc4n3)c2)cc1` [CBK269125] stands 74.9%; under `N#Cc1c(NC(=O)CN2CCc3ccccc3C2)sc2c1CCCC2` [CBK269126], 105%.

On to `Cc1ccc(C(=O)NC(=S)Nc2ccc(-c3ccc(CO)o3)cc2)cc1[N+](=O)[O-]` [CBK269127], for which the viability at 28.5 h, 10 µM was determined as 110%.

As to `COc1cc(NC(=O)c2cc([N+](=O)[O-])ccc2N2CCOCC2)ccc1-c1cc2ccccc2oc1=O` [CBK269128], the viability at 28.5 h, 10 µM stood at 84.9%. Same read-out and setting: as for `O=C(O)CCC(=O)Nc1cccc(C(=O)Nc2ccc(Br)cc2)c1` [CBK269129], the figure is 94.6%. For `CN(C)CCCNC(=O)c1cc2cc(Cl)cc(Cl)c2oc1=O` [CBK269132C], the viability at 28.5 h, 10 µM came out at 90.2%. `O=C(Nc1cccc(Cl)c1)C1CCC(C(=O)Nc2cccc(Cl)c2)CC1` (stereo not drawn) [CBK269136]: the viability at 28.5 h, 10 µM was 85.8%.

As to `O=C1NC(=S)N(Cc2ccccc2)C(=O)C1(CCc1ccncc1)CCc1ccncc1` [CBK269137], the viability at 28.5 h, 10 µM (bulk resorufin, single well) was found to be 106%. For `NC(=O)c1c(NC(=O)Cn2ccc([N+](=O)[O-])n2)sc2c1CCCC2` [CBK269139], the viability at 28.5 h, 10 µM amounted to 113%.

In the case of `CN1C(=O)c2cccc3c(S(=O)(=O)N4CCN(S(=O)(=O)c5ccc6c7c(cccc57)C(=O)N6C)CC4)ccc1c23` [CBK269140], the viability at 28.5 h, 10 µM was 98.2%. On the same count and under the same terms, as for `Cc1cc2nc(/C(C#N)=C\c3cn(CC(=O)Nc4ccc(F)cc4)c4ccccc34)[nH]c2cc1C` [CBK269142], the figure is 113%; as for `Cn1c(CSCc2ccccc2F)nnc1SCC(=O)c1ccc(Br)cc1` [CBK269143], 92.3%.

The values above are taken from PMC12040169 (PLOS Biology, 2025).
